Values of other authors in paper PMC3249774 (Research in Pharmaceutical Sciences, 2011).

System: neuroblastoma cells
Conditions: cells treated with DFO

## CC(=O)N(O)CCCCCNC(=O)CCC(=O)N(O)CCCCCNC(=O)CCC(=O)N(O)CCCCCN [DFO]
  Sensitivity of neuroblastoma cells relative to normal bone marrow cells: 10 fold
